Measurements from US20160287696A1, “PAN POLLEN IMMUNOGENS AND METHODS AND USES FOR IMMUNE RESPONSE MODULATION” (LA JOLLA INSTITUTE FOR ALLERGY AND IMMUNOLOGY, priority 2013, published 2016).

Test system: cultured PBMCs of the allergic donors
Experiment: ELISPOT of IL-5 or IFNg production by cultured PBMCs of TG allergic donors in response to peptide
Format: cell-based, human
Settings: for No of PG+ & th+ peptides per NTGA / No of PP & Th+ peptides per NTGA: Table 6; for No of PG+ & th+ peptides per NTGA: PG+ peptides recognized by T cells of grass allergic donors (n=20); for No of PP & Th+ peptides per NTGA: PP peptides recognized by T cells of grass allergic donors (n=20); for # Th+: Table 7, peptides per NTGA recognized by T cells of grass allergic donors (n=20); for NTGA's containing at least one T cell epitope, Th+ (Col 2): NTGA number given = criterion met, TG allergic donors n=20
Source text: Table 1 indicates for each of the 397 PG+ peptides in which non-grass pollen species a matching peptide with either less than 3, less than 2 or zero mismatches are found. The number of TG grass allergic donors (n=20) with an in vitro T cell response to the TG peptide sequence is also shown.
A set of 93 proteins from Timothy grass (TG) pollen and the assembly of 822 peptides (15 mers) predicted to promiscuously bind HLA class II molecules shown in Table 9 and the immune reactivity in allergic donors have been reported in PCT application WO 2013/119863. […] Immune reactivity was determined by the production of IL-5 or IFNg from cultured PBMCs of the allergic donors in response to stimulation with a peptide and IL-5 and IFNg were measured by ELISPOT as described in Oseroff C et al, 2010.
In short, T cell immune reactivity was determined using PBMCs isolated from study participants and stored in liquid nitrogen until further use. For experimental testing, PBMCs were thawed and expanded in vitro with TG pollen extract (50 μg/mL) or the peptide pool ([…]). The TG extract and peptide pools had each been previously titrated to determine optimal stimulation concentrations.
Cytokine production by cultured PBMCs in response to antigen stimulation was measured by ELISPOT. Cells (1×10^5 cells/well) were plated and incubated with peptide (10 μg/mL), the peptide pool (5 μg/mL), or the TG extract (50 μg/mL). Phytohaemagglutinin (10 μg/mL) and medium alone were used as positive and negative controls, respectively. Samples were considered to produce a cytokine if 100 spot-forming cells (SFCs)/10^6 PBMCs were detected, with P .05 and a stimulation index of 2 or more. Criteria for individual peptides were the same except that a minimum of 20 SFCs were required for a sample to be counted as positive.
Table 3 lists the 397 PG+ peptides and indicates for each non-grass pollen species whether a matching peptide with either less than 3, less than 2 or zero mismatches could be detected. The immune reactivity of the TG peptide was assessed as the number of TG grass allergic donors (n=20) having in vitro T cell response against the TG peptide.

Substance	No of PG+ & th+ peptides per NTGA	No of PP & Th+ peptides per NTGA	# Th+	NTGA's containing at least one T cell epitope, Th+ (Col 2)
5 (KLAMQEFMILPTGAS) [compound 5]	0	0	0	–
67 (VKVLQLETAAGAAIR) [compound 67]	–	–	0	–
78 (GRFKDIFQAVYEADW) [compound 78]	–	–	0	–
79 (WYEHRLIDDMVAYAL) [compound 79]	1	0	0	79
74 (GRFKSIPSIVELDSL) [compound 74]	–	–	0	–
55 (LNKKYGSNVPLLLMN) [compound 55]	0	0	0	–
35 (RNMVLGKRFFVTPSD) [compound 35]	2	1	0	35
16 (QTELDNFMVHQLDGT) [compound 16]	2	2	0	16
46 (LDIAVRLLEPIKEQV) [compound 46]	–	–	1	–
18 (ENRSVLHVALRAPRD) [compound 18]	0	0	0	–
15 (GASTGVYEALELRDG) [compound 15]	–	–	0	–
68 (AAIRFFDHAIGINVP) [compound 68]	–	–	0	–
88 (IKLKNMLFHTARINC) [compound 88]	–	–	0	–
17 (VDNVNSIIGPALIGK) [compound 17]	–	–	0	–
33 (DDGKVYLEMSYYFEI) [compound 33]	0	0	0	–
80 (VQSDFLAQGFGSLGL) [compound 80]	–	–	0	–
40 (GIWAVLAWLSIIAYK) [compound 40]	2	2	0	40
12 (RAAVPSGASTGVYEA) [compound 12]	–	–	0	–
82 (DNARLLDFTQKLEDA) [compound 82]	–	–	0	–
66 (IKRLVEADALKMEII) [compound 66]	–	–	0	–
57 (LKIVEKYANSSIDIH) [compound 57]	0	0	0	–
28 (NGQHSFYQLIHQGRV) [compound 28]	0	0	0	–
61 (ISYEGRVQLLEIAQV) [compound 61]	–	–	0	–
48 (ILSYADFYQLAGVVA) [compound 48]	0	0	0	–
14 (LGAAAVYAGLKFRAP) [compound 14]	–	–	0	–
85 (RVLSCDFKPTRPFRI) [compound 85]	–	–	0	–

Substance	No of PG+ & th+ peptides per NTGA	No of PP & Th+ peptides per NTGA	# Th+	NTGA's containing at least one T cell epitope, Th+ (Col 2)
81 (NSIASIFAWTRGLAH) [compound 81]	–	–	0	–
58 (GKLDLLLSQGKEYVF) [compound 58]	0	0	0	–
92 (SVGFVETLENDLAQL) [compound 92]	–	–	0	–
70 (RFLPVKATSDLQLVQ) [compound 70]	–	–	0	–
42 (HQGIRYLFGDGSRLV) [compound 42]	1	1	0	42
44 (GATIRIYIEQYEKDS) [compound 44]	0	0	0	–
41 (LVSVEDIVLQHWATY) [compound 41]	–	–	0	–
50 (NPLIFDNSYFTELLT) [compound 50]	0	0	0	–
72 (VQSDLYTLVDGFVTR) [compound 72]	2	1	0	72
31 (QGFIWGINSFDQWGV) [compound 31]	0	0	0	–
60 (SDNLGAIVDMKILNH) [compound 60]	0	0	0	–
69 (GINVPRSRFLPVKAT) [compound 69]	0	0	0	–
25 (VLLGLLSVWNVSFLG) [compound 25]	–	–	0	–
38 (AVQSIPYFASGLKGV) [compound 38]	0	0	0	–
54 (FLDLIVLQIESLNKK) [compound 54]	–	–	–	54
45 (DALSPLVDVALKLSK) [compound 45]	–	–	0	–
83 (LNTEEFIDAVAAELQ) [compound 83]	11	4	0	83
75 (GTIRNIINGTVFREP) [compound 75]	–	–	0	–
23 (RYSVCSAVGVLPLSL) [compound 23]	–	–	0	–
21 (VVSKTFTTAETMLNA) [compound 21]	0	0	0	–
37 (SDSVAIIAANAVQSI) [compound 37]	–	–	0	–
84 (KSLVRAFMWDSGSTV) [compound 84]	4	3	0	84
93 (LGEAPYKFKSALEAV) [compound 93]	–	–	0	–
71 (TSDLQLVQSDLYTLV) [compound 71]	–	–	0	–
63 (FKSIEKFKIFNTNNL) [compound 63]	–	–	0	–
